Consider `COc1cc(-n2c(=O)cc(C(F)(F)F)n(C)c2=O)c(F)cc1Br`, for which the melting point is 154 °C.

On to `CC(O)=C(C#N)C(=O)c1ccc(F)c(F)c1`, for which the melting point lay in the range of 51 to 54 °C.

`CSc1ccc(/C=C2/C(C)=C(CC=NO)c3cc(F)ccc32)cc1`: the melting point was 146 to 150 °C.

`CCOC(=O)n1c(SC(F)(F)C(F)F)nc(-c2ccc(F)cc2)c1-c1ccc(F)cc1` had a melting point of 137 to 139 °C.

The molecule `COc1c(F)cc(CCC(=O)O)cc1F` displayed a melting point of 72 to 73 °C.

Molecule `C=CCc1c(C(C)C)nc(C(C)C)c(CO)c1-c1ccc(F)cc1` had a melting point of 69 to 71 °C.

Consider `O=C(O)CN(Cc1cccc(Cn2cc(C3c4ccccc4C=Cc4ccccc43)c(=S)[nH]c2=O)c1)C(=O)OCc1ccccc1`, for which the melting point came to 120 °C.

`O=C1CCN(Cc2cccnc2)C(=O)C1` displayed a melting point of 55 to 60 °C.

For the molecule `C[C@H](C(O)C(c1ccc(F)cc1F)n1cncn1)S(=O)(=O)[C@@H]1CNCCN1c1ccccc1` (stereo not given in full), the melting point lay in the range of 135 to 137 °C.

Turning to `CC(C)(C)S(=O)(=O)C(=[N+]=[N-])S(=O)(=O)C(C)(C)C`, the melting point lay within 121 to 122 °C.

In turn, `Oc1cc(-c2ccc(Cl)cc2)nc2ccc(F)cc12` showed a melting point of over 350 °C.

Regarding `CC(C)c1nn(-c2ccc(Cl)cn2)cc1CCCOc1ccccc1CC(=O)O`, the melting point lay within 141 to 142 °C.

For `CC(c1ccccc1)N1CCC(CO)C1` (stereo not given), the melting point was 86 to 88 °C.

On to `O=S(=O)(Nc1ccc2c(OCc3csc(-c4ccccc4)n3)cccc2c1)C(F)(F)F`, for which the melting point was 89 to 99 °C.

For the molecule `Cc1ccccc1NC(=O)C1Sc2ccccc2N(C)C1=O` (stereo not given), the melting point is 187 to 188 °C.

On to `COc1ccc2c(c1)CCC1C2=CCC2(C)C(OC(C)(C)C)CCC12` (single isomer, unassigned; (+)), for which the melting point is 131 to 132 °C.

`CC(=O)Nc1ccc(C=Nc2cc(Cl)c(N=CN(C)C)c(Cl)c2)cc1` gave a melting point of 171 to 173 °C.

Consider `O=C(O)CCc1[nH]nc2c1CCCC2`, for which the melting point fell in the range of 135 to 136 °C.

In turn, `Cc1[nH]c(C(N)=O)c(C)c1-c1ccnc(Nc2ccc(F)cc2)n1` had a melting point of 93.5 to 96.8 °C.

`NC(=O)c1nnn(Cc2cc(Cl)c(C(=O)c3ccc(Cl)cc3)c(Cl)c2)c1N` displayed a melting point of 198 to 200 °C.

Molecule `COCCOCCOC(=O)/C=C/C(=O)/C=C/c1cccc(OC)c1` gave a melting point of 59 to 60 °C.

In turn, `Cn1nnnc1S(=O)(=O)CCCCBr` gave a melting point of 83.5 to 85.5 °C.

With `O=C(CCc1cccnc1)NCCCCC1CCN(S(=O)(=O)c2ccc3ccccc3c2)CC1`, the melting point fell in the range of 103 to 105 °C.

Take `COc1cc(CCCC2OC(=O)NC2=O)cc(OC)c1OCc1coc(/C=C/c2ccccc2)n1` (stereo not given): the melting point fell in the range of 94 to 95 °C.

Molecule `CS(=O)(=O)c1ccc(-n2nc(C(F)(F)F)cc2-c2ccc(-c3cscn3)cc2)cc1CO` had a melting point of 203 to 205 °C.

Molecule `Cc1c(C#N)ccc(Cl)c1Cl` came in with a melting point of 78 to 79 °C.

`CCCn1c(N)c(NC(=O)C2(NC(=O)C(F)(F)F)CCCC2)c(=O)n(CCC)c1=O` showed a melting point of 203 to 204 °C.

The molecule `CC(=O)COc1c(-c2ccc(S(C)(=O)=O)cc2)cnn(-c2ccc(F)c(F)c2)c1=O` registered a melting point of 169 to 170 °C.

The molecule `Nc1c(C(=O)c2cccnc2)[nH]c2cc(Cl)ccc12` registered a melting point of 188 to 189 °C.

The molecule `COc1cccc(NC(=O)NC2N=C(c3ccc(C)cc3)c3ccccc3N(C)C2=O)c1` (stereo not given) gave a melting point of 240 to 242 °C.

Turning to `CC(=NO)C(C)Oc1ccccc1` (stereo not given), the melting point was 65 to 67 °C.

With `COC(=O)CCc1cc(C(C)(C)C)c(OP(Cl)c2ccccc2)c(C(C)(C)C)c1` (stereo not given), the melting point was in the range of 86 to 88 °C.

With `CCCOCc1ccc(C#CC2(O)CN3CCC2CC3)cc1` (stereo not given), the melting point lay within 140 to 141 °C.

Regarding `C=CCOc1ccccc1OCC(O)CNC1CCc2ccccc2C1` (stereo not given), the melting point was in the range of 98 to 100 °C.

As to `OCC[C@H](O)COC(c1ccccc1)(c1ccccc1)c1ccccc1`, the melting point was in the range of 68.8 to 70.9 °C.

`CC(C)C(=O)c1ccc(-c2ccc3c(c2)CC[C@H]2N(C)C(=O)CC[C@]32C)cc1` came in with a melting point of 101 to 103 °C.

The molecule `COc1ncc(-c2nn(C(C)c3oc4ccccc4c(=O)c3-c3cccc(F)c3)c3ncnc(N)c23)c(OC)n1` (stereo not given) returned a melting point of 286 to 290 °C.

Regarding `CCCCOC(=O)c1cccc(I)c1C(=O)NC(C)(C)CS(C)=O` (stereo not given), the melting point lay in the range of 57.5 to 66.3 °C.

In turn, `O=c1c2cc(F)c(N3CCCC3)nc2n(C2CC2)c(=O)n1OCc1ccccc1` came in with a melting point of 184 to 186 °C.

`O=S(=O)(c1ccc2c(c1)OC(c1ccccc1)(c1ccccc1)O2)N1CCCCC1` had a melting point of 163 to 164 °C.

The molecule `O=C(NCc1ccc(Cl)cc1)c1cnc2ccc(CN3CCOCC3)cc2c1O` displayed a melting point of 219 to 220 °C.

Molecule `O=c1c2c[nH]c3c(c-2nn1-c1ccccc1)CCC3` registered a melting point of over 350 °C.

Regarding `CNC(=O)C1(c2ccc([N+](=O)[O-])cc2)C2C=CC(C2)C1C(N)=O` (stereo not given), the melting point lay within 164 to 166 °C.

`CC1(C)CC(=O)c2c(Nc3ccccc3)cn(-c3ccccn3)c2C1` returned a melting point of 135 to 138 °C.

As to `COc1ccc(-c2cc(Cl)c3ccc(OC)cc3n2)cc1`, the melting point is 99 to 101 °C.

`CCc1cccc(CC)c1C(=O)Nc1cccc2c1CCN(C)C2` returned a melting point of 186 to 188 °C.

As for `CCOC(=O)C1=C(C)NN=C(C(=O)OC)C1c1cccc(Cl)c1` (stereo not given), the melting point turned out to be 139 °C.

`Cc1c(C=Cc2ccccc2)cccc1[N+](=O)[O-]` came in with a melting point of 75.9 °C.

`COC(=O)/C=C/c1c(O)cccc1OCCCCC(=O)OC` came in with a melting point of 97 to 98 °C.

In the case of `O=C1OCc2c1cc1ccc3c(c1c2-c1ccc(F)cc1)OCO3`, the melting point is 215 to 218 °C.

In turn, `COc1ccc2nc(NC(=O)C(CC3CCCC3)c3ccc(S(=O)(=O)N(C)Cc4ccccc4)cc3)sc2n1` (stereo not given) showed a melting point of 206 to 208 °C.

In turn, `CC(=O)NCC1CC1c1cccc2nscc12` (stereo not given) came in with a melting point of 96 to 97 °C.

With `O=C(Nc1ccccc1)n1cc(F)c(NCc2ccccc2F)nc1=O`, the melting point fell in the range of 154 to 157 °C.

`CCc1ccc2c(O)c(-c3nnnn3C)cnc2c1` came in with a melting point of 270 to 273 °C.

As for `CCCC1=C(C(=O)OCC)C(c2c(F)cccc2F)c2c[nH]nc2N1` (stereo not given), the melting point came out at 185 °C.

For `CCCc1nc2c(N)nc3ccccc3c2n1CC1(O)CCCCC1`, the melting point was 250 to 252 °C.

In turn, `CC(=O)NC1CCc2cc3c(cc21)CCC3` (stereo not given) had a melting point of 257 to 259 °C.

Molecule `CCOC(=O)/C(=N\OC1CCS(=O)(=O)C1)c1csc(N)n1` (stereo not given) returned a melting point of 147 to 148 °C.

Molecule `COC(=O)Nc1nc2cc(S(=O)CC3CCC3)ccc2[nH]1` (stereo not given) had a melting point of 198 to 206 °C.

With `COc1ccc(C(=O)c2c(Cc3ccccc3)sc(C)c2C)cc1`, the melting point lay within 85 to 86 °C.

On to `COc1ccc(N(C(=O)CNC(=O)Nc2cccc(C)c2)c2ccccc2)cc1`, for which the melting point is 182 °C.

In the case of `Cc1cccc(-c2nc(C)cc(-c3ccccc3Cl)n2)n1`, the melting point came out at 90.8 °C.

For `CC1(C)CC(NCCCCCCC(=O)O)CC(C)(C)N1`, the melting point lay within 162 to 165 °C.

On to `Nc1ncnc2c1c(-c1cn[nH]c1)nn2Cc1oc2ccccc2c(=O)c1-c1ccccc1`, for which the melting point was 235 to 237 °C.

Molecule `COc1c(C#N)c2cc(Cl)c(Cl)cc2n1C1OC(CO)C(O)C1O` (stereo not given) yielded a melting point of 245 to 246 °C.

Consider `Cc1ccc(C(=O)n2c(C)c(CC(=O)O)c3cc4c(cc32)OCCO4)cc1`, for which the melting point was in the range of 162 to 163 °C.

Take `COc1sc(-c2cc[nH]n2)c2c1C(=O)CC(C)(C)C2`: the melting point lay in the range of 202 to 204 °C.

In turn, `CC(C(=O)O)c1cc([N+](=O)[O-])ccc1F` (stereo not given) gave a melting point of 88 to 90 °C.

With `CCOC(=O)c1cn(CC)c2cc(C3CCCCC3)ccc2c1=O`, the melting point lay within 176 to 178 °C.

Molecule `CCOC(=O)C(N)=NOC(=O)c1cnccc1C(F)(F)F` displayed a melting point of 172 to 174 °C.

`CC(=O)Nc1cc(Oc2ccc3c(C(=O)Nc4ccc(N5CCS(=O)(=O)CC5)c(C(F)(F)F)c4)cccc3c2)ncn1`: the melting point is 280 to 287 °C.

`Cc1cccc(-c2cncc(OC3SCC(O)C(O)C3O)c2)n1` (stereo not given) gave a melting point of 188 °C.

With `COCc1cc2cc(CN3CCOCC3)cc3c(=O)c(C(=O)NCc4ccc(Cl)cc4)cn1c23`, the melting point lay within 157 to 159 °C.

As to `CCC(=O)NC1=NN(c2ccccc2)C(c2ccccc2)C1` (stereo not given), the melting point stood at 148 °C.

With `O=c1[nH]ncc(NCCN2CCC(c3noc4cc(F)ccc34)CC2)c1Cl`, the melting point lay within 229 to 231 °C.

On to `CCCc1nc2ccccc2c(C(=O)O)c1Oc1ccc(-c2ccccc2C(N)=O)cc1`, for which the melting point worked out at 230 °C.

In turn, `COc1ccc2c(c1)Sc1c(cc(OC)c(OC(C)=O)c1Br)N2` showed a melting point of 201 to 203 °C.

In the case of `Cc1ccc(NC(=N)Nc2ncccc2OCc2c(F)cccc2Cl)cc1`, the melting point was 136 to 138 °C.

Turning to `CCCNC(=O)C1(CC=Cc2ccc([N+](=O)[O-])cc2)c2ccccc2-c2ccccc21`, the melting point is 143 to 146 °C.

For `OCc1cnoc1-c1ccc(F)c(F)c1`, the melting point lay in the range of 72 to 73 °C.

`OC(Cn1cncn1)(Cn1ncnc1S)c1ccc(F)cc1F` (stereo not given): the melting point was 187 °C.

As for `CC(=O)N(C)c1c(I)c(NC(=O)CS(=O)(=O)CC(=O)O)c(I)c(C(=O)O)c1I`, the melting point was over 300 °C.

The molecule `Cc1oc(COc2ccc(/C=C/CO)cc2)nc1-c1ccccc1` yielded a melting point of 154 to 155 °C.

Take `O=C1NC(=O)C2CC(SC3=CCC4C(=O)NC(=O)C4C3)=CCC12` (stereo not given): the melting point fell in the range of 204 to 208 °C.

`Cc1ncsc1C(=O)Nc1ccc(-n2nc(C(F)(F)F)c(Cl)c2C2CC2)nc1` came in with a melting point of 144 to 149 °C.

On to `Ic1ccc(CCN2CCOCC2)cc1`, for which the melting point was in the range of 64 to 67 °C.

Molecule `CC/C=C\Cn1c(=O)sc2c(N)ncnc21` yielded a melting point of 134 to 135 °C.

As for `CN1CCN(c2nc3c(c(NCCO)n2)SCCC3)CC1`, the melting point fell in the range of 162 to 164 °C.

As to `COc1c(-c2ccccc2)c(C(=O)c2ccc(O)c(Br)c2)n2ccccc12`, the melting point is 205 °C.

The molecule `CCCCCCCCCCCCCCCCNc1cc(O)ccc1OCC` returned a melting point of 88 to 90 °C.

The term melting point denotes the temperature of the solid-liquid transition.

For the origin of these results see a melting point compilation (Tetko et al.; mined from patent text by program, amines drawn as free bases though some values may be those of a salt).
